These results are taken from patent EP4527828A1, “BIPHENYL COMPOUND, PHARMACEUTICAL COMPOSITION, METHOD FOR PREPARING SAME, AND USE THEREOF” (Longivitron (Suzhou) Biotechnology Co., Ltd, priority 2022, dated 2023).

For assay [1], the system named is mouse liver cancer HEPA1-6. It is filed as in vivo. The note with it: 27 days. As for the experimental part: (1) 32 8-week-old female C57L mice were selected and divided into 5 cages. HEPA1-6 cells cultured with DMEM + 10% FBS in vitro were washed with PBS and digested with 0.25% trypsin for 3 min. The digestion was terminated with a serum-containing medium, the cells were centrifuged at 2500 rpm for 5 min, the supernatant was discarded, and the cells were resuspended with an appropriate amount of PBS twice. The number of cells was 1.14 × 10^7 cells/mL as counted with a BioRad counting instrument. The cell suspension was placed in an Erlenmeyer flask in an ice bath for later use. The tumor fluid was evenly aspirated using a 1 mL sterile syringe and inoculated 0.2 mL/mouse. After the inoculation was completed, the mice continued to be fed under the initial feeding conditions.
(2) Animal grouping: On the second day after tumor fluid inoculation of C57B/L mice, 32 mice were randomly grouped: 8 mice in a control group, 6 mice in a Compound 4-5 mg/kg group, 6 mice in a Compound 4-10 mg/kg group, 6 mice in a Compound 4-20 mg/kg group, and 6 mice in a positive control drug cyclophosphamide (CTX)-100 mg/kg group. The drug test groups were given the drugs to be tested orally once a day, and the positive control drug CTX was injected intraperitoneally once. The mice were weighed and administered daily.
(3) Drug preparation: The corresponding amounts of the drugs to be tested were weighed according to the final concentrations of the experimental groups. The drugs of the Compound 4-5 mg/kg group, the Compound 4-10 mg/kg group, and the Compound 4-20 mg/kg group were prepared with 5% CMCNa + Tween 80, and CTX was prepared with normal saline. The mice in the control group were given 5% CMCNa solution orally. The dosages were as follows: 0.4 mL/20 g body weight of the animal for intragastric administration, and 0.2 mL/20 g body weight of the animal for intraperitoneal injection.
(4) The animals were sacrificed, and the tumors were separated and weighed. The animals in each group were treated immediately 1 h after administration on the last day and weighed, and the tumor tissue was separated and weighed.

Another assay concerns mouse melanoma B16F10. It is filed as in vivo. Here is the method:
(1) 43 8-week-old female C57B/L mice were selected and divided into 5 cages. One preserved B16F10 tumor-bearing female C57L mouse was sacrificed by cervical dislocation. 75% alcohol was sprayed on the skin of the mouse in a laminar flow cabinet, and the tumor tissue of the tumor-bearing mouse was separated by sterilized surgical instruments and cut into a sterilized 5 mL homogenizer with ophthalmic scissors. The tumor tissue was slowly milled on ice to form a tumor fluid. The number of cells was 6.85 × 10^7 cells/mL as counted with a BioRad counting instrument. The tumor fluid was placed in an Erlenmeyer flask in an ice bath for later use. The tumor fluid was evenly aspirated using a 1 mL sterile syringe and inoculated 0.2 mL/C57/L mouse. After the inoculation was completed, the mice continued to be fed under the initial feeding conditions.
(4) The animals were sacrificed, and the tumors were separated and weighed. The animals in each group were treated immediately 1 h after administration on the last day and weighed, and the tumor tissue was weighed.
Animal grouping and administration: On the second day after tumor fluid inoculation of C57B/L mice, tumor-bearing mice were randomly grouped: a control group, a Compound 8-5 mg/kg group, a Compound 8-10 mg/kg group, a Compound 8-20 mg/kg group, and a positive control drug cyclophosphamide CTX-100 mg/kg group. The animals were weighed and administered daily. The drugs to be tested were administered orally daily, and the positive control drug CTX was administered intraperitoneally once. After the experiment was completed, the body weights and tumor weights of the animals were weighed, and the tumor weight inhibition rate (%) was calculated.

The target in a further assay is T1, LAG3/FGL1 (Homo sapiens, UniProt P18627).
T1 sequence (P18627 23-450 limits assumed): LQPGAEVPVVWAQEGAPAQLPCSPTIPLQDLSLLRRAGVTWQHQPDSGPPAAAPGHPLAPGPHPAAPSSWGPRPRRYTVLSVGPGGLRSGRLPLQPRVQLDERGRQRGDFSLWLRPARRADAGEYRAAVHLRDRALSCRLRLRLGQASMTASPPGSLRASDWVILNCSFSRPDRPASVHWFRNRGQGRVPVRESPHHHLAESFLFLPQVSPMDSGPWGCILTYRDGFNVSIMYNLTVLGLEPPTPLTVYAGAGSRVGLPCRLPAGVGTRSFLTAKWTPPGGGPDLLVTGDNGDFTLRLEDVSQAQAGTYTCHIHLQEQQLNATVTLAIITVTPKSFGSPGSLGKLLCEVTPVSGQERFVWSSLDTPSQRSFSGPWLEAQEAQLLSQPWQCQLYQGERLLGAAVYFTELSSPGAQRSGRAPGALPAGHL
Nature of the assay: HTRF binding inhibition of LAG3 and its ligand FGL1. To be noted: Table 2; read-out: IC50 value for inhibiting LAG3/FGL1 interaction. Here is the method:
Reagent preparation: ① Tag1-LAG3 protein: a protein solution with a concentration of 50 nM (20 µL with a final system concentration of 10 nM) was prepared using a diluent. ② Tag2-FGL1 protein: a protein solution with a concentration of 100 nM (20 µL with a final system concentration of 20 nM) was prepared using a diluent. ③ Anti-Tag1-Tb: a 100× stock solution was diluted with a detection buffer to a 1 × stock solution. ④ Anti-Tag2-XL665: a 100× stock solution was diluted with a detection buffer to a 1 × stock solution.
Assay step: (1) 2 µL of compound solution (with a concentration to be measured of 10×) was added to a 384-well opaque plate having a white background, 4 µL of Tag1-LAG3 protein and 4 µL of Tag2-FGL1 protein were added, respectively, and the plate was incubated at room temperature for 15 min; (2) Anti-Tag1-Tb and Anti-Tag2-XL665 were mixed at a ratio of 1:1 in advance, and 10 µL of mix solution was added to each well; (3) the plate was gently mixed, sealed, and incubated at room temperature for 1 h or overnight before detection.
In general terms: TR-FRET usually uses a lanthanide donor and a delayed reading to cut background.

[2] abbreviates: HEPA1-6, 10 mg/kg po once a day.
Setting [3] is: HEPA1-6, 20 mg/kg po once a day.

Read-outs that look alike come from different tables or passages of the source.

On to `CCCCCCOc1ccc2cc1-c1cc(ccc1OCCCCCC)C(=O)CCCCCC2=O` [Compound 4], for which the Inhibition rate in assay [1] (HEPA1-6, 5 mg/kg po once a day) was determined as 24.72%; in assay [1] (setting [2]), 52%; in assay [1] (setting [3]) it was 36.56%. For the same compound, the Tumor weight in assay [1] (HEPA1-6, 5 mg/kg po once a day) is 0.510 ± 0.312 g; in assay [1] (setting [2]) it was 0.325 ± 0.256 g; in assay [1] (setting [3]) it was 0.430 ± 0.140 g.

For the compound `CCCCCCOc1ccc(C(=O)O)cc1-c1cc(C(=O)NCCCCNC(=O)C(F)(F)F)ccc1OCCCCCC` [Compound 8], the Inhibition rate in the assay with mouse melanoma B16F10 (B16F10, 5 mg/kg orally daily) was 16.94%; in the assay with mouse melanoma B16F10 (B16F10, 10 mg/kg orally daily) it was 19.78%; in the assay with mouse melanoma B16F10 (B16F10, 20 mg/kg orally daily), 53.64%. The Tumor weight stood at 1.50 ± 0.27 g with mouse melanoma B16F10 (B16F10, 5 mg/kg orally daily); 1.45 ± 0.70 g in the assay with mouse melanoma B16F10 (B16F10, 10 mg/kg orally daily); 0.80 ± 0.46 g with mouse melanoma B16F10 (B16F10, 20 mg/kg orally daily). Besides, the IC50 on LAG3/FGL1 is 10 µM.
